Assay results as given in patent US5049550A, “Diadenosine 5', 5'"-p^1, p^4,-tetraphosphate analogs as antithrombotic agents” (Worcester Foundation for Experimental Biology, priority 1988, dated 1991).
Entries after “also recorded” stand apart in the source; their conditions may differ. Where two headings read alike, the source gives them in different places. Values belong to the compound of their own block, whether it stands above or below them.

How the values were obtained:
[1] = test system: rabbit platelet aggregation by ADP; assay: ADP-induced aggregation of rabbit platelets; format: cell-based; conditions: ADP 2×10^-5 M
Procedure: (§1) Rabbit carotid arterial blood was collected in 3.8% sodium citrate (9 volumes blood to 1 volume citrate). Platelet rich plasma (PRP) and platelet poor plasma (PPP) were prepared by centrifugation at 150 g and 1,000 g for 10 minutes respectively. Aggregation studies were performed in a Chrono-Log (Havertown, Pa.) aggregometer with ADP or collagen as aggregating agents. ADP (Sigma Chemical Co.) was used in a final concentration of 2×10^-5 M. Calf skin collagen (Sigma Chemical Co.) was used in a final concentration of 200 ug/ml.
(§2) The effect of AP4 A on rabbit platelet aggregation by ADP and collagen was tested. […] The anti-aggregatory effect of AP4 A was detected at a concentration of 2×10^-4 M (tenfold that of ADP) and increased in a dose-response pattern with increasing concentrations (FIG. 1).

[2] = test system: ADP-induced platelet aggregation; assay: Kinetics of ADP-induced platelet aggregation (double-reciprocal plot); format: cell-based; conditions: FIG. 6
Procedure: Changes in light transmission reflecting the velocity of ADP-induced platelet aggregability was determined using a platelet aggregometer. Born, G.V.P., Nature 184:927-929 (1962). […] The Y points on the X-intercept are altered by factors [formula] where I is the concentration of inhibitor, and Ki is a characteristic constant. Points on the X-intercept are given by the expression [formula] intercept when [I]=0. When [I] is known, the equation can be solved for Ki.

[3] = plasma; cited from earlier work
platelets = conditions: cited from earlier work
[4] = test system: ADP-Induced Platelet Aggregation; assay: ADP-induced platelet aggregation in human platelet-rich plasma; format: cell-based; conditions: for effect on platelet inhibition at 50 μM: even at 50 μM; for inhibition of platelet aggregation (in words): FIG. 5 at 12.5 μM; for inhibition of platelet aggregation compared with E10: ADP
Procedure: Human platelet-rich plasma was pre-incubated at 37° C. with the appropriate analogue for 1 minute. Aggregation was then induced by 5 μM ADP. ID50 values (i.e. concentration of analogue at which platelets are inhibited by 50 percent) were obtained from log-dose response plots.
FIG. 5 is a graphic representation of the data.
This Example illustrates that sulfur-containing analogues of AP4 A are as effective as E10 in inhibiting aggregation of platelets. Platelet aggregation was induced by ADP and its inhibition measured as in the previous Example.

[5] = test system: Intracarotid Artery Thrombosis; assay: Intracarotid cannula arterial thrombosis model in rabbits; format: in vivo, rabbit
Procedure: Gurewich, V. and Lipinski, B. Thrombosis Research, 9:101 (1976); Louie, S. and Gurewich, V. Thrombosis Research, 30:323-335 (1983).
Male, New Zealand white rabbits, weighing 2-2.5 kg., were anesthetized with ketamine hydrochloride (100 mg/kg intramuscularly). AP4 A (Boehringer (100 Mannheim Biochemicals, Indianapolis, Ind.), or saline control was infused via a marginal ear vein. A segment of the left common carotid artery was isolated by vascular clamps. A 1 cm. length of polyethylene tubing (PE-90, Clay Adams, Parsippany, N.Y.) was inserted, secured by silk ligatures, and the blood flow re-established by removing the clamps. Blood was sampled from the right carotid artery for assays of AP4 A and ATP, and for platelet aggregation studies.
After preliminary trials, a standard AP4 A infusion protocol was established as follows: A dose of AP4 A at 50 mg/kg was reconstituted in 10 ml of normal saline and infused by pump at a uniform rate over two hours. Control rabbits received 10 ml of saline alone. The intracarotid cannula was inserted, and the re-establishment of blood flow timed at 15 minutes into the infusion. Upon the completion of infusion at 2 hours, the intracarotid tubing was removed, and its contents flushed out into a petri dish. The presence of a clot or of liquid blood contents was noted.
Twenty-five rabbits each were assigned to the experimental group that received AP4 A (50 mg/kg), and the control group that received normal saline alone. The incidence of clot formation in the intracarotid cannula in the two groups was compared by the Chi-Square test.
Initially, twelve rabbits received a constant infusion of E10 over a 2 hour period at a dosage of 100 mg in 10 ml. These intravenous infusions were performed as described above for AP4 A.
In addition, 30 mg of E10 in 3 ml saline was administered as a single injection over a one minute time span at the beginning of the cannulation period.

[6] = test system: Intracarotid Artery Thrombosis; conditions: rabbit model, literature; cited from earlier work
[7] = test system: rabbit platelet aggregation by collagen; assay: Collagen-induced aggregation of rabbit platelets; format: cell-based; conditions: collagen 200 ug/ml
Procedure: as §1, §2

[8] = Homo sapiens, Platelet, Table 3, 5 μM ADP, 1 minute pre-incubation at 37° C., read-out: ID50 (concentration of analogue at which platelets are inhibited by 50 percent)
[9] = E10 30 mg, single injection over one minute, 6 rabbits
[10] = E10 100 mg, 2 h infusion, 12 rabbits
[11] = E10 total (100 mg + 30 mg series), 18 rabbits
[12] = Homo sapiens, Platelet, Table 5, sulfur-containing analogues, induced by ADP, read-out: ID50 (the source's name)

Compound: Nc1ncnc2c1ncn2[C@@H]1O[C@H](COP(=O)(O)OP(=O)(O)O)[C@@H](O)[C@H]1O [ADP, adenosine diphosphate, reference compound]
platelet aggregation by agonist [1]: prompt and complete platelet aggregation | Km [2]: 3 µM

Compound: Nc1ncnc2c1ncn2[C@@H]1O[C@H](COP(=O)(O)OP(=O)(O)OP(=O)(O)OC[C@H]2O[C@@H](n3cnc4c(N)ncnc43)[C@H](O)[C@@H]2O)[C@@H](O)[C@H]1O [AP3 A, diadenosine 5',5'"-p^1, p^3 -triphosphate]
degradation products [3]: hydrolysed in plasma to AMP (adenosine monophosphate) and ADP (adenosine diphosphate) | effect on platelet aggregation (platelets): gradual aggregation of platelets; also recorded: immediately reversible upon the addition of AP4 A

Compound: Nc1ncnc2c1ncn2[C@@H]1O[C@H](COP(O)(=S)OP(=O)(O)C(F)P(=O)(O)OP(O)(=S)OC[C@H]2O[C@@H](n3cnc4c(N)ncnc43)[C@H](O)[C@@H]2O)[C@@H](O)[C@H]1O (stereo partly shown) [Analogue E13, Aps p(CHF)pps A]
IC50 [4, 12]: 7 µM | inhibition of platelet aggregation compared with E10 ([4]; sulfur-containing analogues): an inhibitory effect as great as E10

Compound: Nc1ncnc2c1ncn2[C@@H]1O[C@H](COP(O)(=S)OP(=O)(O)C(F)(F)P(=O)(O)OP(O)(=S)OC[C@H]2O[C@@H](n3cnc4c(N)ncnc43)[C@H](O)[C@@H]2O)[C@@H](O)[C@H]1O (stereo partly shown) [Analogue E14, Aps p(CF2)pps A]
IC50 [4, 12]: 17 µM

Compound: Nc1ncnc2c1ncn2[C@@H]1O[C@H](COP(O)(=S)OP(=O)(O)OP(=O)(O)OP(O)(=S)OC[C@H]2O[C@@H](n3cnc4c(N)ncnc43)[C@H](O)[C@@H]2O)[C@@H](O)[C@H]1O (stereo partly shown) [Analogue E15, Aps ppps A]
IC50 [4, 12]: 6 µM | inhibition of platelet aggregation compared with E10 ([4]; sulfur-containing analogues): an inhibitory effect as great as E10

Compound: CC(=O)Oc1ccccc1C(=O)O [aspirin]
effect on clot formation in intracarotid cannula [6]: can be modified

Compound: OCCN(CCO)c1nc(N2CCCCC2)c2nc(N(CCO)CCO)nc(N3CCCCC3)c2n1 [dipyridamole]
effect on clot formation in intracarotid cannula [6]: can be modified

Compound: CCCCCCCCNC(C)C(O)c1ccc(SC(C)C)cc1 (stereo not shown) [suloctidil]
effect on clot formation in intracarotid cannula [6]: can be modified

Compound: collagen: Calf skin collagen (Sigma Chemical Co.) [reference compound]
platelet aggregation by agonist [7]: prompt and complete platelet aggregation

The next lines start with results.

IC50 ([4]; Table 3, 5 μM ADP, 1 minute pre-incubation at 37° C., read-out: ID50 (concentration of analogue at which platelets are inhibited by 50 percent)): > 50 µM
Compound: Nc1ncnc2c1ncn2C1OC(COP(=O)(O)CP(=O)(O)OP(=O)(O)CP(=O)(O)OCC2OC(n3cnc4c(N)ncnc43)C(O)C2O)C(O)C1O (stereo not shown) [Analogue E1, Ap(CH2)pp(CH2)pA]
effect on platelet inhibition at 50 μM [4]: no effect on platelet inhibition

IC50 [4, 8]: 22 µM
Compound: Nc1ncnc2c1ncn2[C@@H]1O[C@H](COP(=O)(O)OP(=O)(O)CP(=O)(O)OP(=O)(O)OC[C@H]2O[C@@H](n3cnc4c(N)ncnc43)[C@H](O)[C@@H]2O)[C@@H](O)[C@H]1O [Analogue E2, App(CH2)ppA]

IC50 [4, 8]: 11 µM
Compound: Nc1ncnc2c1ncn2[C@@H]1O[C@H](COP(=O)(O)OP(=O)(O)CCP(=O)(O)OP(=O)(O)OC[C@H]2O[C@@H](n3cnc4c(N)ncnc43)[C@H](O)[C@@H]2O)[C@@H](O)[C@H]1O [Analogue E3, App(CH2)2 ppA]

IC50 [4, 8]: > 50 µM
Compound: Nc1ncnc2c1ncn2[C@@H]1O[C@H](COP(=O)(O)CP(=O)(O)OP(=O)(O)CP(=O)(O)OC[C@H]2O[C@@H](n3cnc4c(N)ncnc43)[C@H](O)[C@@H]2O)[C@@H](O)[C@H]1O [Analogue E4, Ap(CH2)pp(CH2)pA]
effect on platelet inhibition at 50 μM [4]: no effect on platelet inhibition

IC50 [4, 8]: 4 µM
Compound: Nc1ncnc2c1ncn2[C@@H]1O[C@H](COP(=O)(O)OP(=O)(O)C(F)P(=O)(O)OP(=O)(O)OC[C@H]2O[C@@H](n3cnc4c(N)ncnc43)[C@H](O)[C@@H]2O)[C@@H](O)[C@H]1O (stereo partly shown) [Analogue E5, App(CHF)ppA]
inhibition of platelet aggregation (in words) ([4]; 5 μM ADP): particularly effective; also recorded: the next most effective in inhibiting platelet aggregation

IC50 [4, 8]: 50 µM
Compound: Nc1ncnc2c1ncn2[C@@H]1O[C@H](COP(=O)(O)C(F)P(=O)(O)OP(=O)(O)C(F)P(=O)(O)OC[C@H]2O[C@@H](n3cnc4c(N)ncnc43)[C@H](O)[C@@H]2O)[C@@H](O)[C@H]1O (stereo partly shown) [Analogue E6, Ap(CHF)pp(CHF)pA]

IC50 [4, 8]: 15 µM
Compound: Nc1ncnc2c1ncn2[C@@H]1O[C@H](COP(=O)(O)C(F)(F)P(=O)(O)OP(=O)(O)C(F)(F)P(=O)(O)OC[C@H]2O[C@@H](n3cnc4c(N)ncnc43)[C@H](O)[C@@H]2O)[C@@H](O)[C@H]1O [Analogue E7, Ap(CF2)pp(CF2)pA]

IC50 [4, 8]: 6 µM
Compound: Nc1ncnc2c1ncn2[C@@H]1O[C@H](COP(=O)(O)OP(=O)(O)C(F)(F)P(=O)(O)OP(=O)(O)OC[C@H]2O[C@@H](n3cnc4c(N)ncnc43)[C@H](O)[C@@H]2O)[C@@H](O)[C@H]1O [Analogue E8, App(CF2)ppA]

IC50 [4, 8]: 19 µM
Compound: Nc1ncnc2c1ncn2[C@@H]1O[C@H](COP(=O)(O)C(Cl)P(=O)(O)OP(=O)(O)C(Cl)P(=O)(O)OC[C@H]2O[C@@H](n3cnc4c(N)ncnc43)[C@H](O)[C@@H]2O)[C@@H](O)[C@H]1O (stereo partly shown) [Analogue E9, Ap(CHCl)pp(CHCl)pA]

IC50 [4, 8]: 3 µM | IC50 [4, 12]: < 5 µM
Compound: Nc1ncnc2c1ncn2[C@@H]1O[C@H](COP(=O)(O)OP(=O)(O)C(Cl)P(=O)(O)OP(=O)(O)OC[C@H]2O[C@@H](n3cnc4c(N)ncnc43)[C@H](O)[C@@H]2O)[C@@H](O)[C@H]1O (stereo partly shown) [Analogue E10, diadenosine chloromethylene tetraphosphate]
effect on clot formation compared to saline controls ([5]; E10 30 mg and 100 mg series combined): significantly reduces clot formation | % Clots [5, 9]: 33% | Clot Absent (rabbits) [5, 9]: 4 | Clot Present (rabbits) [5, 9]: 2 | fraction of rabbits with no incidence of clotting ([5]; E10 100 mg): two-thirds | % Clots [5, 10]: 33% | Clot Absent (rabbits) [5, 10]: 8 | Clot Present (rabbits) [5, 10]: 4 | % Clots [5, 11]: 33% | Clot Absent (rabbits) [5, 11]: 12 | Clot Present (rabbits) [5, 11]: 6 | inhibition of platelet aggregation (in words) ([4]; 5 μM ADP): particularly effective; also recorded: the most effective inhibitor of platelet aggregation; also recorded: potent inhibitor of platelet aggregation; also recorded: potent inhibitors of platelet aggregation and blood clot formation | Ki ([2]; competitive inhibition of ADP-induced aggregation): 6.7 µM | type / relative strength of inhibition ([2]; double reciprocal plot): superior to AP4 A as a competitive inhibitor

IC50 [4, 8]: 9 µM
Compound: Nc1ncnc2c1ncn2[C@@H]1O[C@H](COP(=O)(O)C(Cl)(Cl)P(=O)(O)OP(=O)(O)C(Cl)(Cl)P(=O)(O)OC[C@H]2O[C@@H](n3cnc4c(N)ncnc43)[C@H](O)[C@@H]2O)[C@@H](O)[C@H]1O [Analogue E11, Ap(CCL2)pp(CCl2)pA]

IC50 [4, 8]: 10 µM
Compound: Nc1ncnc2c1ncn2[C@@H]1O[C@H](COP(=O)(O)OP(=O)(O)C(Cl)(Cl)P(=O)(O)OP(=O)(O)OC[C@H]2O[C@@H](n3cnc4c(N)ncnc43)[C@H](O)[C@@H]2O)[C@@H](O)[C@H]1O [Analogue E12, App(CCl2)ppA]
